{
  "source": "patent US20110136801A1",
  "about": "“Novel Compounds” (Dainippon Sumitomo Pharma Co. Ltd., priority 2009, published 2011)",
  "data": [
    {"biological_target": "T1, human TLR7 (Homo sapiens, UniProt Q9NYK1)", "T1 construct": "expressed in transfected cells; host or cells: HEK293 cell line stably expressing the pNiFty2-SEAP reporter plasmid; TLR7 in pUNO vector, blasticidin selection", "T1 sequence (Q9NYK1 27-1049)": "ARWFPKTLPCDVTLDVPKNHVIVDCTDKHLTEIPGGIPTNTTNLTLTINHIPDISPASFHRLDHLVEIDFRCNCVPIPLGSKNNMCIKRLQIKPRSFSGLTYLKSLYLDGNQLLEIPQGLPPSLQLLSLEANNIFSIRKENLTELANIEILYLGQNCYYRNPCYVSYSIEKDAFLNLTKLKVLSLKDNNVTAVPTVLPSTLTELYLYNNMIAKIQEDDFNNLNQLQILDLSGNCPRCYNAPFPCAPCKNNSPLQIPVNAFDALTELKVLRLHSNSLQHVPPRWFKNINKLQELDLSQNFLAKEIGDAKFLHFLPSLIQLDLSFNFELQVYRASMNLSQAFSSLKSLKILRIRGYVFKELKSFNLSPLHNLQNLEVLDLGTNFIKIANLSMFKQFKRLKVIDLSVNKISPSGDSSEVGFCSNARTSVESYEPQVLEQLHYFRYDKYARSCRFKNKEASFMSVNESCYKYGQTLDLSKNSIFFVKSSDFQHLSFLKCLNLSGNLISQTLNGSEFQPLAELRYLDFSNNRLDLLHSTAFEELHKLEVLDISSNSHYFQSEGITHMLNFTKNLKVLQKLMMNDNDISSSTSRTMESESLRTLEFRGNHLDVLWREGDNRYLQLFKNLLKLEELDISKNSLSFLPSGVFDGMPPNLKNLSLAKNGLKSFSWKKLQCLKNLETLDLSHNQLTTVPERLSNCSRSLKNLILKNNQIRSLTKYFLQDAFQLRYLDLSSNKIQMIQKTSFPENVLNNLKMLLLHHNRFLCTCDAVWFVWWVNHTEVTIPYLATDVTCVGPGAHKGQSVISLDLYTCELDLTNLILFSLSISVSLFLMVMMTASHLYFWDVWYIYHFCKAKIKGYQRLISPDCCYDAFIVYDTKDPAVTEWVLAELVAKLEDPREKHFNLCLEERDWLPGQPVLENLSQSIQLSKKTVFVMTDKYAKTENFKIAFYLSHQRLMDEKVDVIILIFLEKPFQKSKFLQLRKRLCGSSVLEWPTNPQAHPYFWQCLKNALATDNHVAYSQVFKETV", "experiment": "Human TLR7 Assay (SEAP reporter in HEK293 cells);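 further: Read-out is secreted alkaline phosphatase made under an NFkB/ELAM-1 composite promoter, reporting TLR7-triggered NFkB activation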", "type": "cell-based", "details": "HEK293 cell line expressing human TLR7 and pNiFty2-SEAP reporter, overnight incubation at 37° C., 0.1% DMSO; read-out: hTLR7 EC50", "units": {"EC50": "nM"}, "description": "The most common variant sequence of human TLR7 (represented by the EMBL sequence AF240467) was cloned into the mammalian cell expression vector pUNO and transfected into a HEK293 cell line already stably expressing the pNiFty2-SEAP reporter plasmid; integration of the reporter gene was maintained by selection with the antibiotic zeocin. Transfectants with stable TLR7 expression were selected using the antibiotic blasticidin. In this reporter cell-line, expression of secreted alkaline phosphatase (SEAP) is controlled by an NFkB/ELAM-1 composite promoter comprising five NFkB sites combined with the proximal ELAM-1 promoter. TLR signaling leads to the translocation of NFkB and activation of the promoter results in expression of the SEAP gene. TLR7-specific activation was assessed by determining the level of SEAP produced following overnight incubation of the cells at 37° C. with the standard compound in the presence of 0.1% (v/v) dimethylsulfoxide (DMSO). Concentration dependent induction of SEAP production by compounds was expressed as the concentration of compound which produced half of the maximal level of SEAP induction for that compound (EC50).", "values": [
      {"compound": "COCCc1nc2c(N)nc3ccccc3c2n1CCCN(Cc1cccc(OC(C)(C)C(=O)OC)c1)C(=O)CN(C)C", "note": "[Example 149, Methyl 2-{3-[(N-{3-[4-amino-2-(2-methoxyethyl)-1H-imidazo[4,5-c]quinolin-1-yl]propyl}-2-{dimethylamino}acetamido)methyl]phenoxy}-2-methylpropanoate]", "EC50": 181},
      {"compound": "COCCc1nc2c(N)nc3ccccc3c2n1CCCN(Cc1cccc(OCC(=O)OC2CCCC2)c1)C(=O)CN(C)C", "note": "[Example 110, Cyclopentyl 2-{3-[(N-{3-[4-amino-2-(2-methoxyethyl)-1H-imidazo[4,5-c]quinolin-1-yl]propyl}-2-{dimethylamino}acetamido)methyl]phenoxy}acetate]", "EC50": 128},
      {"compound": "CCN(C)CC(=O)N(CCCn1c(CCOC)nc2c(N)nc3ccccc3c21)Cc1cccc(OC(C)(C)C(=O)OC)c1", "note": "[Example 151, Methyl 2-{3-[(N-{3-[4-amino-2-(2-methoxyethyl)-1H-imidazo[4,5-c]quinolin-1-yl]propyl}-2-{ethyl(methyl)amino}acetamido)methyl]phenoxy}-2-methylpropanoate]", "EC50": 82},
      {"compound": "CCOC(=O)COc1cccc(CN(CCCn2c(CCOC)nc3c(N)nc4ccccc4c32)C(=O)CN2CCCCC2)c1", "note": "[Example 32, Ethyl 2-{3-[(N-{3-[4-amino-2-(2-methoxyethyl)-1H-imidazo[4,5-c]quinolin-1-yl]propyl}-2-(piperidin-1-yl)acetamido)methyl]phenoxy}acetate]", "EC50": 177},
      {"compound": "CCOCc1nc2c(N)nc3ccccc3c2n1CCCN(Cc1cccc(OC(C)(C)C(=O)OCC)c1)C(=O)CN1CCCC1", "note": "[Example 170, Ethyl 2-{3-[(N-{3-[4-amino-2-(ethoxymethyl)-1H-imidazo[4,5-c]quinolin-1-yl]propyl}-2-{pyrrolidin-1-yl}acetamido)methyl]phenoxy}-2-methylpropanoate]", "EC50": 521},
      {"compound": "COCCc1nc2c(N)nc3ccccc3c2n1CCCN(Cc1cccc(OCC(=O)OC(C)C)c1F)C(=O)CN(C)C", "note": "[Example 96, Isopropyl 2-{3-[(N-{3-[4-amino-2-(2-methoxyethyl)-1H-imidazo[4,5-c]quinolin-1-yl]propyl}-2-{dimethylamino}acetamido)methyl]-2-fluorophenoxy}acetate]", "EC50": 304},
      {"compound": "CCN(C)CC(=O)N(CCCn1c(CCOC)nc2c(N)nc3ccccc3c21)Cc1cccc(OCC(=O)OC(C)C)c1", "note": "[Example 114, Isopropyl 2-{3-[(N-{3-[4-amino-2-(2-methoxyethyl)-1H-imidazo[4,5-c]quinolin-1-yl]propyl}-2-{ethyl(methyl)amino}acetamido]methyl)phenoxy}acetate]", "EC50": 67.8},
      {"compound": "CCOC(=O)COc1cc(F)cc(CN(CCCn2c(CCOC)nc3c(N)nc4ccccc4c32)C(=O)CN(CC)CC)c1", "note": "[Example 124, Ethyl 2-{3-[(N-{3-[4-amino-2-(2-methoxyethyl)-1H-imidazo[4,5-c]quinolin-1-yl]propyl}-2-{diethylamino}acetamido)methyl]-5-fluorophenoxy}acetate]", "EC50": 40.3},
      {"compound": "CCN(C)CC(=O)N(CCCn1c(CCOC)nc2c(N)nc3ccccc3c21)Cc1cccc(OCC(=O)OC(C)C)c1F", "note": "[Example 98, Isopropyl 2-{3-[(N-{3-[4-amino-2-(2-methoxyethyl)-1H-imidazo[4,5-c]quinolin-1-yl]propyl}-2-{ethyl(methyl)amino}acetamido)methyl]-2-fluorophenoxy}acetate]", "EC50": 228},
      {"compound": "CCN(CC)CC(=O)N(CCCn1c(CCOC)nc2c(N)nc3ccccc3c21)Cc1ccc(C)c(OCC(=O)OC(C)C)c1", "note": "[Example 67, Isopropyl 2-{5-[(N-{3-[4-amino-2-(2-methoxyethyl)-1H-imidazo[4,5-c]quinolin-1-yl]propyl}-2-{diethylamino}acetamido)methyl]-2-methylphenoxy}acetate]", "EC50": 45.8},
      {"compound": "CCN(CC)CC(=O)N(CCn1c(CCOC)nc2c(N)nc3ccccc3c21)Cc1cccc(OCC(=O)OC)c1", "note": "[Example 102, Methyl 2-{3-[(N-{2-[4-amino-2-(2-methoxyethyl)-1H-imidazo[4,5-c]quinolin-1-yl]ethyl}-2-{diethylamino}acetamido)methyl]phenoxy}acetate]", "EC50": "> 10000"},
      {"compound": "CCN(CC)CC(=O)N(CCCn1c(CCOC)nc2c(N)nc3ccccc3c21)Cc1ccc(F)c(OCC(=O)OC(C)C)c1", "note": "[Example 118, Isopropyl 2-{5-[(N-{3-[4-amino-2-(2-methoxyethyl)-1H-imidazo[4,5-c]quinolin-1-yl]propyl}-2-{diethylamino}acetamido)methyl]-2-fluorophenoxy}acetate]", "EC50": 77.4},
      {"compound": "CCOCc1nc2c(N)nc3ccccc3c2n1CCCN(Cc1cccc(OCC(=O)OC(C)C)c1F)C(=O)CN(CC)CC", "note": "[Example 166, Isopropyl 2-{3-[(N-{3-[4-amino-2-(ethoxymethyl)-1H-imidazo[4,5-c]quinolin-1-yl]propyl}-2-{diethylamino}acetamido)methyl]-2-fluorophenoxy}acetate]", "EC50": 475},
      {"compound": "CCOC(=O)COc1cccc(CN(CCCCn2c(CCOC)nc3c(N)nc4ccccc4c32)C(=O)NCCN(C)C)c1", "note": "[Example 127, Ethyl 2-{3-[(1-{4-[4-amino-2-(2-methoxyethyl)-1H-imidazo[4,5-c]quinolin-1-yl]butyl}-3-{2-(dimethylamino)ethyl}ureido)methyl]phenoxy}acetate]", "EC50": 42.9},
      {"compound": "CCCCc1nc2c(N)nc3ccccc3c2n1CCCN(Cc1cccc(OCC(=O)OC)c1)C(=O)CN(CC)CC", "note": "[Example 14, Methyl (3-{[[3-(4-amino-2-butyl-1H-imidazo[4,5-c]quinolin-1-yl)propyl](N,N-diethylglycyl)amino]methyl}phenoxy)acetate]", "EC50": 73.6},
      {"compound": "CCCCc1nc2c(N)nc3ccccc3c2n1CCCN(Cc1cccc(OC(C)(C)C(=O)OCC)c1)C(=O)CN(C)C", "note": "[Example 155, Ethyl 2-[3-({N-[3-(4-amino-2-butyl-1H-imidazo[4,5-c]quinolin-1-yl)propyl]-2-(dimethylamino)acetamido}methyl)phenoxy]-2-methylpropanoate]", "EC50": 235},
      {"compound": "CCOC(=O)COc1cc(CN(CCCCn2c(CCOC)nc3c(N)nc4ccccc4c32)C(=O)NCCN2CCCCC2)ccc1F", "note": "[Example 140, Ethyl 2-{5-[(1-{4-[4-amino-2-(2-methoxyethyl)-1H-imidazo[4,5-c]quinolin-1-yl]butyl}-3-{2-(piperidin-1-yl)ethyl}ureido)methyl]-2-fluorophenoxy}acetate]", "EC50": 79.1},
      {"compound": "CCN(CC)CC(=O)N(CCCn1c(CCOC)nc2c(N)nc3ccccc3c21)Cc1ccc(OC)c(OCC(=O)OC)c1", "note": "[Example 63, Methyl 2-{5-[(N-{3-[4-amino-2-(2-methoxyethyl)-1H-imidazo[4,5-c]quinolin-1-yl]propyl}-2-{diethylamino}acetamido)methyl]-2-methoxyphenoxy}acetate]", "EC50": 212},
      {"compound": "CCOCc1nc2c(N)nc3ccccc3c2n1CCCN(Cc1cccc(OCC(=O)OC(C)C)c1)C(=O)CN1CCCC1", "note": "[Example 172, Isopropyl 2-{3-[(N-{3-[4-amino-2-(ethoxymethyl)-1H-imidazo[4,5-c]quinolin-1-yl]propyl}-2-{pyrrolidin-1-yl}acetamido)methyl]phenoxy}acetate]", "EC50": 434},
      {"compound": "CCN(CC)CC(=O)N(CCn1c(CCOC)nc2c(N)nc3ccccc3c21)Cc1cccc(OC(C)(C)C(=O)OC)c1", "note": "[Example 107, Methyl 2-{3-[(N-{2-[4-amino-2-(2-methoxyethyl)-1H-imidazo[4,5-c]quinolin-1-yl]ethyl}-2-{diethylamino}acetamido)methyl]phenoxy}-2-methylpropanoate]", "EC50": "> 10000"},
      {"compound": "CCCCc1nc2c(N)nc3ccccc3c2n1CCCN(Cc1ccc(OCC(=O)OC)cc1)C(=O)CN(C)C", "note": "[Example 5, Methyl (4-{[[3-(4-amino-2-butyl-1H-imidazo[4,5-c]quinolin-1-yl)propyl](N,N-dimethylglycyl)amino]methyl}phenoxy)acetate]", "EC50": 247},
      {"compound": "COCCc1nc2c(N)nc3ccccc3c2n1CCCCN(CCN(C)C)Cc1cccc(OC(C)(C)C(=O)OC)c1", "note": "[Example 135, Methyl 2-{3-[({4-[4-amino-2-(2-methoxyethyl)-1H-imidazo[4,5-c]quinolin-1-yl]butyl}{2-(dimethylamino)ethyl}amino)methyl]phenoxy}-2-methylpropanoate]", "EC50": 16.6},
      {"compound": "CCOCc1nc2c(N)nc3ccccc3c2n1CCCN(Cc1cccc(OC(C)(C)C(=O)OC)c1)C(=O)CN1CCCC1", "note": "[Example 171, Methyl 2-{3-[(N-{3-[4-amino-2-(ethoxymethyl)-1H-imidazo[4,5-c]quinolin-1-yl]propyl}-2-{pyrrolidin-1-yl}acetamido)methyl]phenoxy}-2-methylpropanoate]", "EC50": 560}
    ]}
  ]
}
